Measurements from patent publication US9144594B2, “Cathepsin L mediated diseases and associated methods and products” (University of Miami, priority 2005, dated 2015).

Legend:
[1] = tested on: dynamin-dynamin interactions; test: FLIM analysis of dynamin-dynamin interactions (self-assembly) in podocytes; assay type: cell-based, mouse; conditions: in ps
Description: In one embodiment the cell-based assay to monitor dynamin-dynamin interactions is performed on a cultured mouse podocyte cell line and the readout of dynamin self-assembly using fluorescence lifetime imaging microscopy (FLIM). FLIM is based on the fluorescence resonance energy transfer (FRET) between the donor and acceptor that shortens the lifetime of the donor if the acceptor distance is within ≈100 Å (10 nm). […] The assay is based on overexpressing dynamin in podocytes, and subsequently staining fixed cells with monoclonal anti-dynamin antibodies that have been conjugated with donor or acceptor florophores. In one embodiment of the invention, Alexa-488 is used as the donor florophore and Alexa-568 is used as the acceptor florophore. In yet another embodiment the donor florophore is dynamin conjugated enhanced-cyan fluorescence protein (ECFP) and the acceptor is dynamin conjugated enhanced yellow-fluorescence protein (EYFP). It will be appreciated by the person of ordinary skill in the art that numerous combinations of FRET donor and acceptors can be used, which are readily available and known. In one embodiment, the FLIM assay is carried out in COS cells and the donor can be selected from the list consisting of: ECFP-WT, ECFP-1690K, ECFP-K44A, ECFP-K694A, and the -acceptor can be selected from the list consisting of: EYFP, EYFP-WT, EYFP-K44A, EYFP-1690K, EYFP-K694A. In yet another embodiment the FLIM assay is performed in podocytes and the donor is GTPase-Alexa488 and the acceptor is selected from the list consisting of: DAM-Alexa568, GTPase-Alexa568, and Hudyl-Alexa568. Cells are stained by mixing both donor and acceptor florophores in equal amounts, and examining the spatially-restricted lifetime shortening in cells detects the localization of dynamin-dynamin interactions in cells. Since dynamin-dynamin interactions are vital for the function of the podocyte, it will be appreciated by the person of ordinary skill in the art that this assay can now be used to screen peptides, small molecules or drugs which can affect these molecular interactions. For example such molecules are cytocholasin D, jasplakinolide, colchisine, dynK44A, dynK694A, dynWT, dynI690K, dynR725A (SEQ ID NO.4), dynL356Q, G358V, (SEQ ID NO.3) any combination thereof, etc.
In order to test the hypothesis that self-assembly of dynamin was protecting its cathepsin L processing in cultured podocytes, dynamin self-assembly in live cells was examined using fluorescence lifetime imaging microscopy (FLIM). FLIM is based on the fluorescence resonance energy transfer (FRET) between the donor and the acceptor that shortens the lifetime of the donor if the acceptor distance is within ≈100 Å (10 nm). […] A FLIM-assay was developed that specifically detects dynamin self-assembly into the higher order structures in podocytes. The assay is based on overexpressing dynamin in podocytes, and subsequently staining fixed cells with monoclonal anti-dynamin antibodies that have been conjugated with either Alexa-488 (donor florophore) or Alexa-568 (acceptor florophore). Cells are stained by mixing both florophores in equal amounts, and examining lifetime of Alexa-488. […] Importantly, FRET only occurred in the vicinity of the membrane. […] Thus, both dominant activating mutants, dynK694A and dynR725A, are impaired for assembly into a supramolecular structures in podocytes under normal conditions. […] Loss of FRET measured FLIM correlates with the loss of p40 proteolytic fragment in cultured podocytes. And presence of p40 in cells expressing dynR725A under normal conditions correlates with the lack of dynR725A assembly detected by FLIM. The opposite is true for the dynWT; lack of p40 under control conditions when FLIM is present, and appearance of the p40 upon LPS treatment with no measurable FRET. […] Finally, proteolytic processing of dynamin after LPS treatment is also observed in vivo. […]

CatL = test: Dynamin p40 fragment in kidney extracts after gene delivery and LPS injection; assay type: in vivo, mouse; conditions: LPS injected at the time of gene delivery
CatL, sequence (P06797 114-333 limits assumed): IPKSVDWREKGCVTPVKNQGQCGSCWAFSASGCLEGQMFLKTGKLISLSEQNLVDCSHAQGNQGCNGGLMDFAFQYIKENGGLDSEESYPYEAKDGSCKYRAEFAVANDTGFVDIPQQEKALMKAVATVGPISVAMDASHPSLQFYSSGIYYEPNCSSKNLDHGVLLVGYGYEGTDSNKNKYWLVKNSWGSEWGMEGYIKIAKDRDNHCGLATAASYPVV
Description: Next the cleavage pattern of dyn1 in kidney extracts following LPS injection was examined. Kidney cytosols were probed with antibody against the GTPase domain of dynamin, which detects p40. […] Western blotting also detected a dynamin fragment of ˜55 kD. As in cultured podocytes, the presence of this fragment was LPS- and CatL-independent (FIGS. 20B, lane 5 and 20C, lanes 1 and 2), further supporting the idea that it is generated by other proteases during tissue preparation.
Four mice kidneys were homogenized in buffer containing 20 mM HEPES pH 7.5, 100 mM NaCl, 1 mM MgCl2, 1 mM PMSF, proteinase inhibitors, calpain inhibitor (Calbiochem, San Diego, Calif.) and E-64d using dounce homogenizer. Subsequently, cytosol was centrifuged for 10 min at 7000 rpm. Proteins were solubilized by 1% Triton X, 1 h at 4° C., before it was spun at 50,000 rpm for 1 h.
CatL plasmids encoding short and long CatL (Goulet et al., Biol Chem 387, 1285-1293 (2004)), Dyn1 plasmids (pcDNA-driven) or p2.5 Podocin-driven (Moeller et al., Genesis 35, 39-42 (2003)) were introduced into mice (n>10, each construct) using the TransIT in vivo gene delivery system according to the manufacturer's instruction (Mirus Bio Corporation, Madison, Wis.). 10 and 24 h after gene delivery, proteinuria was assessed by Multistix 8 SG strips (Bayer Corporation, Elkhart, Ind.), and Bradford protein assay (Sigma, Saint Louis, Mo.). From the same urines the protein creatinine ratio was determined with Albuwell M and Creatinine Companion protein creatinine ELISA kits (Exocell Inc., Philadelphia, Pa.).

[2] = Table 4, donor GTPase-a488, acceptor Hudy1-a568

Row | Molecule | Mean Lifetime (γ1) ([1]; Table 1, donor GTPase-Alexa488, acceptor Hudy1-Alexa568, podocytes overexpressing the dynamin variant) | Mean Lifetime (γ1) ([1]; Table 4, donor GTPase-a488, acceptor GTPase-a568) | Mean Lifetime (γ1) [1, 2] | generation of p40 in kidney extracts, in words (CatL)
1 | dynWT: wild type dynamin overexpressed by adenovirus or delivered as dynamin 1 cDNA | 2212 ± 65 | 2423 ± 46 | 2254 ± 60 | generation of p40
2 | dynK44A: dominant-negative dynamin mutant that cannot bind GTP (protein, UniProt Q05193 1-864, looked up, variant K44A) Dynamin-1: MGNRGMEDLIPLVNRLQDAFSAIGQNADLDLPQIAVVGGQSAGASSVLENFVGRDFLPRGSGIVTRRPLVLQLVNATTEYAEFLHCKGKKFTDFEEVRLEIEAETDRVTGTNKGISPVPINLRVYSPHVLNLTLVDLPGMTKVPVGDQPPDIEFQIRDMLMQFVTKENCLILAVSPANSDLANSDALKVAKEVDPQGQRTIGVITKLDLMDEGTDARDVLENKLLPLRRGYIGVVNRSQKDIDGKKDITAALAAERKFFLSHPSYRHLADRMGTPYLQKVLNQQLTNHIRDTLPGLRNKLQSQLLSIEKEVEEYKNFRPDDPARKTKALLQMVQQFAVDFEKRIEGSGDQIDTYELSGGARINRIFHERFPFELVKMEFDEKELRREISYAIKNIHGIRTGLFTPDMAFETIVKKQVKKIREPCLKCVDMVISELISTVRQCTKKLQQYPRLREEMERIVTTHIREREGRTKEQVMLLIDIELAYMNTNHEDFIGFANAQQRSNQMNKKKTSGNQDEILVIRKGWLTINNIGIMKGGSKEYWFVLTAENLSWYKDDEEKEKKYMLSVDNLKLRDVEKGFMSSKHIFALFNTEQRNVYKDYRQLELACETQEEVDSWKASFLRAGVYPERVGDKEKASETEENGSDSFMHSMDPQLERQVETIRNLVDSYMAIVNKTVRDLMPKTIMHLMINNTKEFIFSELLANLYSCGDQNTLMEESAEQAQRRDEMLRMYHALKEALSIIGDINTTTVSTPMPPPVDDSWLQVQSVPAGRRSPTSSPTPQRRAPAVPPARPGSRGPAPGPPPAGSALGGAPPVPSRPGASPDPFGPPPQVPSRPNRAPPGVPSRSGQASPSRPESPRPPFDL |  |  | 2515 ± 43 | 
3 | dynK694A: dominant activator dynamin mutant impaired in self-assembly (protein) MGNRGMEDLIPLVNRLQDAFSAIGQNADLDLPQIAVVGGQSAGKSSVLENFVGRDFLPRGSGIVTRRPLVLQLVNATTEYAEFLHCKGKKFTDFEEVRLEIEAETDRVTGTNKGISPVPINLRVYSPHVLNLTLVDLPGMTKVPVGDQPPDIEFQIRDMLMQFVTKENCLILAVSPANSDLANSDALKVAKEVDPQGQRTIGVITKLDLMDEGTDARDVLENKLLPLRRGYIGVVNRSQKDIDGKKDITAALAAERKFFLSHPSYRHLADRMGTPYLQKVLNQQLTNHIRDTLPGLRNKLQSQLLSIEKEVEEYKNFRPDDPARKTKALLQMVQQFAVDFEKRIEGSGDQIDTYELSGGARINRIFHERFPFELVKMEFDEKELRREISYAIKNIHGIRTGLFTPDMAFETIVKKQVKKIREPCLKCVDMVISELISTVRQCTKKLQQYPRLREEMERIVTTHIREREGRTKEQVMLLIDIELAYMNTNHEDFIGFANAQQRSNQMNKKKTSGNQDEILVIRKGWLTINNIGIMKGGSKEYWFVLTAENLSWYKDDEEKEKKYMLSVDNLKLRDVEKGFMSSKHIFALFNTEQRNVYKDYRQLELACETQEEVDSWKASFLRAGVYPERVGDKEKASETEENGSDSFMHSMDPQLERQVETIRNLVDSYMAIVNKTVRDLMPKTIMHLMINNTAEFIFSELLANLYSCGDQNTLMEESAEQAQRRDEMLRMYHALKEALSIIGDINTTTVSTPMPPPVDDSWLQVQSVPAGRRSPTSSPTPQRRAPAVPPARPGSRGPAPGPPPAGSALGGAPPVPSRPGASPDPFGPPPQVPSRPNRAPPGVPSRSGQASPSRPESPRPPFDL |  |  | 2408 ± 40 | 
4 | dynL356Q, G358V: dynamin mutant (SEQ ID NO.3) not recognized by cathepsin L; ELSGGA mutated to EQSVGA (protein, listed as Homo sapiens) MGNRGMEDLIPLVNRLQDAFSAIGQNADLDLPQIAVVGGQSAGKSSVLENFVGRDFLPRGSGIVTRRPLVLQLVNATTEYAEFLHCKGKKFTDFEEVRLEIEAETDRVTGTNKGISPVPINLRVYSPHVLNLTLVDLPGMTKVPVGDQPPDIEFQIRDMLMQFVTKENCLILAVSPANSDLANSDALKVAKEVDPQGQRTIGVITKLDLMDEGTDARDVLENKLLPLRRGYIGVVNRSQKDIDGKKDITAALAAERKFFLSHPSYRHLADRMGTPYLQKVLNQQLTNHIRDTLPGLRNKLQSQLLSIEKEVEEYKNFRPDDPARKTKALLQMVQQFAVDFEKRIEGSGDQIDTYEQSVGARINRIFHERFPFELVKMEFDEKELRREISYAIKNIHGIRTGLFTPDMAFETIVKKQVKKIREPCLKCVDMVISELISTVRQCTKKLQQYPRLREEMERIVTTHIREREGRTKEQVMLLIDIELAYMNTNHEDFIGFANAQQRSNQMNKKKTSGNQDEILVIRKGWLTINNIGIMKGGSKEYWFVLTAENLSWYKDDEEKEKKYMLSVDNLKLRDVEKGFMSSKHIFALFNTEQRNVYKDYRQLELACETQEEVDSWKASFLRAGVYPERVGDKEKASETEENGSDSFMHSMDPQLERQVETIRNLVDSYMAIVNKTVRDLMPKTIMHLMINNTKEFIFSELLANLYSCGDQNTLMEESAEQAQRRDEMLRMYHALKEALSIIGDINTTTVSTPMPPPVDDSWLQVQSVPAGRRSPTSSPTPQRRAPAVPPARPGSRGPAPGPPPAGSALGGAPPVPSRPGASPDPFGPPPQVPSRPNRAPPGVPSRSGQASPSRPESPRPPFDL |  |  |  | not generated
